Experimental data taken from PMC8177795 (Cancer Science, 2021).

Key:
Safety and tolerability = assay type: in vivo, Japanese patients
[1] = Plasma pharmacokinetics of acalabrutinib and ACP‐5862; assay type: in vivo, Japanese patients
[2] = system: relapsed/refractory (r/r) B‐cell malignancies; assay: Antitumor activity; assay type: in vivo, Japanese patients
r/r MCL = conditions: cited from earlier work
[3] = r/r CLL; cited from earlier work
[4] = multiple dose 100 mg BID, day 8, part 1
[5] = multiple dose 100 mg BID, day 8, part 1, fasting
[6] = CLL/SLL cohort (n = 9), Part 1 + Part 2
[7] = MCL cohort (n = 13), Part 1 + Part 2

SMILES: CC#CC(=O)N1CCC[C@H]1c1nc(-c2ccc(C(=O)Nc3ccccn3)cc2)c2c(N)nccn12 [acalabrutinib]
- AE of clinical interest: Other leukopenia (Safety and tolerability; r/r CLL/SLL cohort (N = 9)): 0 n (%)
- AE of clinical interest: Second primary malignancies (excl. nonmelanoma skin cancer) (Safety and tolerability; r/r CLL/SLL cohort (N = 9)): 1 (11.1) n (%)
- AE of clinical interest: Second primary malignancy (Safety and tolerability; r/r CLL/SLL cohort (N = 9)): 1 (11.1) n (%)
- AE of clinical interest: Thrombocytopenia (Safety and tolerability; r/r CLL/SLL cohort (N = 9)): 1 (11.1) n (%)
- AE of clinical interest: Tumor lysis syndrome (Safety and tolerability; r/r CLL/SLL cohort (N = 9)): 0 n (%)
- Patients with any AE of clinical interest (Safety and tolerability; r/r CLL/SLL cohort (N = 9)): 8 (88.9) n (%)
- Patients with any SAE (Safety and tolerability; r/r CLL/SLL cohort (N = 9)): 2 (22.2) n (%)
- SAE: Abdominal pain upper (Safety and tolerability; r/r CLL/SLL cohort (N = 9)): 0 n (%)
- SAE: Anemia (Safety and tolerability; r/r CLL/SLL cohort (N = 9)): 0 n (%)
- SAE: Blood and lymphatic system disorders (Safety and tolerability; r/r CLL/SLL cohort (N = 9)): 0 n (%)
- SAE: Colon cancer (Safety and tolerability; r/r CLL/SLL cohort (N = 9)): 1 (11.1) n (%)
- SAE: Gastrointestinal disorders (Safety and tolerability; r/r CLL/SLL cohort (N = 9)): 0 n (%)
- SAE: Infections and infestations (Safety and tolerability; r/r CLL/SLL cohort (N = 9)): 1 (11.1) n (%)
- SAE: Neoplasms benign, malignant, and unspecified (incl. cysts and polyps) (Safety and tolerability; r/r CLL/SLL cohort (N = 9)): 1 (11.1) n (%)
- SAE: Pneumonia (Safety and tolerability; r/r CLL/SLL cohort (N = 9)): 1 (11.1) n (%)
- AE of clinical interest: Anemia (Safety and tolerability; r/r MCL cohort (N = 13)): 3 (23.1) n (%)
- AE of clinical interest: Atrial fibrillation (Safety and tolerability; r/r MCL cohort (N = 13)): 1 (7.7) n (%)
- AE of clinical interest: Cardiac events (Safety and tolerability; r/r MCL cohort (N = 13)): 1 (7.7) n (%)
- AE of clinical interest: Hemorrhage (Safety and tolerability; r/r MCL cohort (N = 13)): 4 (30.8) n (%)
- AE of clinical interest: Hepatotoxicity (Safety and tolerability; r/r MCL cohort (N = 13)): 2 (15.4) n (%)
- AE of clinical interest: Infections (Safety and tolerability; r/r MCL cohort (N = 13)): 7 (53.8) n (%)
- AE of clinical interest: Interstitial lung disease/pneumonitis (Safety and tolerability; r/r MCL cohort (N = 13)): 1 (7.7) n (%)
- AE of clinical interest: Leukopenia (Safety and tolerability; r/r MCL cohort (N = 13)): 4 (30.8) n (%)
- AE of clinical interest: Neutropenia (Safety and tolerability; r/r MCL cohort (N = 13)): 3 (23.1) n (%)
- AE of clinical interest: Other hemorrhage (Safety and tolerability; r/r MCL cohort (N = 13)): 4 (30.8) n (%)
- AE of clinical interest: Other leukopenia (Safety and tolerability; r/r MCL cohort (N = 13)): 3 (23.1) n (%)
- AE of clinical interest: Second primary malignancies (excl. nonmelanoma skin cancer) (Safety and tolerability; r/r MCL cohort (N = 13)): 0 n (%)
- AE of clinical interest: Second primary malignancy (Safety and tolerability; r/r MCL cohort (N = 13)): 0 n (%)
- AE of clinical interest: Thrombocytopenia (Safety and tolerability; r/r MCL cohort (N = 13)): 3 (23.1) n (%)
- AE of clinical interest: Tumor lysis syndrome (Safety and tolerability; r/r MCL cohort (N = 13)): 1 (7.7) n (%)
- Patients with any AE of clinical interest (Safety and tolerability; r/r MCL cohort (N = 13)): 11 (84.6) n (%)
- Patients with any SAE (Safety and tolerability; r/r MCL cohort (N = 13)): 3 (23.1) n (%)
- SAE: Abdominal pain upper (Safety and tolerability; r/r MCL cohort (N = 13)): 1 (7.7) n (%)
- SAE: Anemia (Safety and tolerability; r/r MCL cohort (N = 13)): 0 n (%)
- SAE: Blood and lymphatic system disorders (Safety and tolerability; r/r MCL cohort (N = 13)): 0 n (%)
- SAE: Colon cancer (Safety and tolerability; r/r MCL cohort (N = 13)): 0 n (%)
- SAE: Gastrointestinal disorders (Safety and tolerability; r/r MCL cohort (N = 13)): 1 (7.7) n (%)
- SAE: Infections and infestations (Safety and tolerability; r/r MCL cohort (N = 13)): 2 (15.4) n (%)
- SAE: Neoplasms benign, malignant, and unspecified (incl. cysts and polyps) (Safety and tolerability; r/r MCL cohort (N = 13)): 0 n (%)
- SAE: Pneumonia (Safety and tolerability; r/r MCL cohort (N = 13)): 2 (15.4) n (%)
- Coefficient of variation (CV) of Cmax ([1]; after a single dose): 174%
- Interpatient variability (CVs) ([1]; after multiple dosing): < 30%
- RAC (extent of accumulation on multiple dosing), Amean ± SD [1, 4]: 1.69
- TC (time dependency of pharmacokinetics), Amean ± SD [1, 4]: 1.163 ± 0.4770
- CL/F (oral clearance), Amean ± SD [1, 5]: 84.89 ± 19.84 L/h
- t1/2, Amean ± SD [1, 5]: 1.795 ± 0.7404 h
- RAC (extent of accumulation on multiple dosing), Amean ± SD ([1]; multiple dose 100 mg BID, day 8, part 1, listed as Acalabrutinib): 1.694 ± 1.275
- CL/F (oral clearance), Amean ± SD ([1]; single dose 100 mg acalabrutinib, part 1, fasting): 99.54 ± 44.33 L/h
- Absorption ([1]; single‐ and multiple‐dose periods): rapidly absorbed
- CR [2, 6]: 0 Number (%) of patients with a response
- CRi [2, 6]: 2 (22) Number (%) of patients with a response
- Clinical PD [2, 6]: 0 Number (%) of patients with a response
- Nonresponse (total) [2, 6]: 1 (11) Number (%) of patients with a response
- Not evaluable [2, 6]: 0 Number (%) of patients with a response
- ORR [2, 6]: 8 (89) Number (%) of patients with a response
- PD [2, 6]: 0 Number (%) of patients with a response
- PR [2, 6]: 6 (67) Number (%) of patients with a response
- PRL [2, 6]: 1 (11) Number (%) of patients with a response
- Stable disease [2, 6]: 0 Number (%) of patients with a response
- ORR ([2]; CLL/SLL cohort including PRL (n = 9), Part 1 + Part 2): 9 (100) Number (%) of patients with a response
- CR [2, 7]: 5 (38) Number (%) of patients with a response
- Nonresponse (total) [2, 7]: 5 (38) Number (%) of patients with a response
- Not evaluable [2, 7]: 0 Number (%) of patients with a response
- ORR [2, 7]: 8 (62) Number (%) of patients with a response
- PD [2, 7]: 2 (15) Number (%) of patients with a response
- PR [2, 7]: 3 (23) Number (%) of patients with a response
- Stable disease [2, 7]: 3 (23) Number (%) of patients with a response
- Overall response rate (ORR) ([2]; r/r CLL/SLL cohort (8/9 patients)): 89%
- Median progression‐free survival (PFS) ([2]; r/r CLL/SLL cohort (n = 9)): not reached
- Overall response rate (ORR) ([2]; r/r CLL/SLL cohort including PRL (9/9 patients)): 100%
- Overall response rate (ORR) ([2]; r/r MCL cohort (8/13 patients)): 62%
- Median progression‐free survival (PFS) ([2]; r/r MCL cohort (n = 13)): 7 months
- Headache, patients (r/r MCL): 38%
- Headache, patients [3]: 43%
